# Assay results published in patent publication US8685925B2, “Method and compositions for treating stroke with fever” (Nono Inc., priority 2006, dated 2014).
# Where two headings read alike, the source gives them in different places. No end group written: not given here.
# Key:
# PSD-95 = PSD-95 (Homo sapiens, UniProt P78352); details: Kornau, 1995; Aarts, 2002; cited from earlier work
# Sprague-Dawley rats [1] = type: in vivo, rat; details: pial vessel occlusion study
# Experimental: (§1) The peptides were prepared daily from lyophilized powder by dissolving them in normal saline to the final desired concentration. They were administered intravenously via a slow (4-5 min) injection by individuals blinded to the treatment group.
# (§2) Experiments were performed in male adult Sprague-Dawley rats weighing 250-300 g (Charles River Laboratory, Canada). All procedures conformed to guidelines established by the Canadian Council on Animal Care and with the approval of the University Health Network animal care committee. All animals were housed in groups of 1-2 animals in cages with free access to food and water and in rooms having an ambient temperature of 20±1° C. and 12:12 hr light/dark cycle.
# Each animal was weighed and then anesthesia was induced. For the permanent pial vessel occlusion model, rats were anesthetized with ketamine (100 mg/kg), acepromazine (2 mg/kg), and xylazine (50 mg/kg), supplemented with one third the initial dose as required. For the two permanent middle cerebral artery occlusion (pMCAO) studies, anesthesia was induced with 3.5% halothane in a mixture of nitrous oxide and oxygen (Vol. 2:1) and maintained with 0.8% halothane in the mixture. […] Mean arterial blood pressure was measured with the use of an indwelling femoral arterial catheter connected to a pressure transducer and was recorded continuously. […]
# Sprague-Dawley rats [2] = type: in vivo, rat
# Experimental: as §1, §2
# (§3) Each animal was weighed and then anesthesia was induced. For the permanent pial vessel occlusion model, rats were anesthetized with ketamine (100 mg/kg), acepromazine (2 mg/kg), and xylazine (50 mg/kg), supplemented with one third the initial dose as required. For the two permanent middle cerebral artery occlusion (pMCAO) studies, anesthesia was induced with 3.5% halothane in a mixture of nitrous oxide and oxygen (Vol. 2:1) and maintained with 0.8% halothane in the mixture. Rats were endotracheally intubated and mechanically ventilated (60 strokes/min, tidal volume of […]). A rectal temperature probe was inserted. Polyethylene catheters (PE-50) were introduced into the left femoral artery and vein for blood pressure recording, blood sampling, and drug injection. Mean arterial blood pressure was measured with the use of an indwelling femoral arterial catheter connected to a pressure transducer and was recorded continuously. Serial measurements were made of arterial blood gases, pH, and blood glucose.
# The left middle cerebral artery was occluded by the intraluminal suture method described by Longa (1989). In brief, the left common carotid artery (CCA) was exposed through a midline neck incision and was dissected free from surrounding nerves and fascia, from its bifurcation to the base of the skull. The occipital artery branches of the external carotid artery (ECA) were then isolated, and these branches were dissected and coagulated. The ECA was dissected further distally and coagulated along with the terminal lingual and maxillary artery branches, which were then divided. The internal carotid artery (ICA) was isolated and carefully separated from the adjacent vagus nerve, and the pterygopalatine artery was ligated close to its origin. The tip of a 4-cm length of 3-0 monofilament nylon suture (Harvard Apparatus) was rounded by burning to achieve a tip diameter of 0.33-0.36 mm and tip length of 0.5-0.6 mm and coated with poly-L-lysine (Belayev et al., 1996). The suture was introduced through the CCA and advanced into the ICA and thence into the circle of Willis (about 18-20 mm from the carotid bifurcation), effectively occluding the middle cerebral artery. The silk suture around the CCA was tightened around the intraluminal nylon suture to secure it and permanently occlude the middle cerebral artery. Sham operated animals underwent the identical surgical procedure, including permanent ligation of the CCA, but without suture insertion to occlude the MCA. The pMCAO procedure was considered to be adequate if the animal's neurobehavioral score (below) exceeded 10 at 2 h after pMCAO. Animals were allowed to recover from anesthesia at room temperature.
# At 24 h after pMCAO the animals were deeply anaesthetized employing halothane inhalation and the brains were quickly removed, sliced into 8 standard coronal sections, and incubated for 30 min in 2% triphenyltetrazolium chloride (TTC; Sigma, St. Louis, USA) in saline at 37° C. […] Each section was digitally photographed, and the infarcts were then traced onto templates representing the 8 standardized coronal slices. The use of the templates corrects for any brain edema produced by the infarct, allowing for a more accurate determination of infarct volume. […]
# Sprague-Dawley rats [3] = assay: Core temperature after sham procedure with peptide injection; type: in vivo, rat; details: single i.v. injection of 3 nMole/g
# Experimental: A day prior to undergoing ischemia, the animals were implanted with intraperitoneal transmitters (E-Mitter; Mini Mitter/Respironics, Oregon, USA) permitting core temperature (CT) and activity monitoring. Monitoring was performed continuously from 20 hours before, to 24 hours after, the pMCAO (Mini-Mitter VitalView telemetric monitoring software; Mini Mitter/Respironics, Oregon, USA). During the animal surgery the animals were away from the telemetric receivers, so CT was measured with a rectal probe and maintained at 36.5° C. to 37.5° C. using a heating lamp or homeothermic blanket. […] Temporalis muscle temperatures were measured with the same thermocouple probe inserted into the muscle through an 18 gauge needle. Cage temperatures were continuously recorded using an external temperature probe and software (Tektronix WaveStar software; Tektronix, Texas, USA) running on a digital oscilloscope and a separate computer. […]
# Previous experience has shown that the neuroprotective effects of some anti-ischemic drugs might have been, at least in part, related to drug-induced hypothermia (e.g., MK-801; Corbett, 1990). […] To determine whether PSD-95 inhibition affected core temperature (CT), it was measured in rats (n=6) implanted with telemetric intra-peritoneal temperature monitors. […]
# Sprague-Dawley rats [4] = assay: Physiological parameters in the pMCAO studies (body weight, MABP, blood gases, pH); type: in vivo, rat; details: for pH: arterial blood; for pH / MABP / pCO2 / pO2: first line, time not given
# Experimental: as §3
# Sequence of PSD-95 (P78352 whole entry, species assumed): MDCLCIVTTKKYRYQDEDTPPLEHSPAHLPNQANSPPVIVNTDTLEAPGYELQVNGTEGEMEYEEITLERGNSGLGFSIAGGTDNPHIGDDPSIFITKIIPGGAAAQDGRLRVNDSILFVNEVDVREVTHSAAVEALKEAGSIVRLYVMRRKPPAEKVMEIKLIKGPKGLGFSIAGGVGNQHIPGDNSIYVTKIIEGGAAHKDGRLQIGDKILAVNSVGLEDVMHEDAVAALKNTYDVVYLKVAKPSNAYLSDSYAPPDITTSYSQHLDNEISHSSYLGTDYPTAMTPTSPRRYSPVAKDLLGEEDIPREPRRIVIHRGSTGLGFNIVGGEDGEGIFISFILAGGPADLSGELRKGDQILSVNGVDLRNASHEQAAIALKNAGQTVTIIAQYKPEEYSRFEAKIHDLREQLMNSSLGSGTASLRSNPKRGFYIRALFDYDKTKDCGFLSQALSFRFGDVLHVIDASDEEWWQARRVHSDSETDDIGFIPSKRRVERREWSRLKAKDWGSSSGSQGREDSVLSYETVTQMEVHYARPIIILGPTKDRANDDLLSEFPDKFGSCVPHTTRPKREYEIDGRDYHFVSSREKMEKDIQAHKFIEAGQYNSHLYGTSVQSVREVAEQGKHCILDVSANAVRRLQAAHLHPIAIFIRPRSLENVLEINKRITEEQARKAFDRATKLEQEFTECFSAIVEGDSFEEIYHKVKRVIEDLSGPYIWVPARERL
sequence,measurement,setting,value
"KLSSIEADA [NR2B(ADA), reference compound]",binding to PSD-95,PSD-95,incapable of binding PSD-95
YGRKKRRQRRRKLSSIESDV [Tat-NR2B9c(SDV)],Post-op Deaths,Sprague-Dawley rats [1]; 0.3 nMole/g,0
same,Post-op Deaths,Sprague-Dawley rats [1]; 3.0 nMole/g,0
same,Post-op Deaths,"Sprague-Dawley rats [2]; pMCAO study #1, 0.3 nMole/g",1/1
same,Post-op Deaths,"Sprague-Dawley rats [2]; pMCAO study #1, 3.0 nMole/g",1
same,Post-op Deaths,"Sprague-Dawley rats [2]; pMCAO study #2, 0.3 nMole/g",1/1
same,difference in core temperature versus sham (vehicle) animals,Sprague-Dawley rats [3]; 20 h before until 24 h after,no differences in CT at any time point
same,increase in core temperature after termination of anesthesia,"Sprague-Dawley rats [3]; no ischemia, n=6",~0.5 °C
KLSSIETDV (PL protein motif) [NR2B9c(TDA)],binding to PSD-95,PSD-95,interacts with the PDZ2 domain of PSD-9S
YGRKKRRQRRRKLSSIETDV [Tat-NR2B9c(TDV)],Post-op Deaths,"Sprague-Dawley rats [2]; pMCAO study #1, 0.3 nMole/g",0
same,Post-op Deaths,"Sprague-Dawley rats [2]; pMCAO study #1, 3.0 nMole/g",0
same,Post-op Deaths,"Sprague-Dawley rats [2]; pMCAO study #2, 0.3 nMole/g",2
same,Post-op Deaths,"Sprague-Dawley rats [2]; pMCAO study #2, 3.0 nMole/g",3
same,MABP 10 min,"Sprague-Dawley rats [4]; 1st study, 0.3 nmol/g",121.44 ± 5.23 mmHg
same,pCO2 10 min,"Sprague-Dawley rats [4]; 1st study, 0.3 nmol/g",39.33 ± 0.73 mmHg
same,pH 10 min,"Sprague-Dawley rats [4]; 1st study, 0.3 nmol/g",7.44 ± 0.01
same,pO2 10 min,"Sprague-Dawley rats [4]; 1st study, 0.3 nmol/g",124.22 ± 6.34 mmHg
same,MABP 70 min,"Sprague-Dawley rats [4]; 1st study, 0.3 nmol/g",129.44 ± 6.54 mmHg
same,pCO2 70 min,"Sprague-Dawley rats [4]; 1st study, 0.3 nmol/g",38.67 ± 0.93 mmHg
same,pH 70 min,"Sprague-Dawley rats [4]; 1st study, 0.3 nmol/g",7.41 ± 0.01
same,pO2 70 min,"Sprague-Dawley rats [4]; 1st study, 0.3 nmol/g",137.67 ± 4.75 mmHg
same,pH,"Sprague-Dawley rats [4]; 1st study, 0.3 nmol/g",7.42 ± 0.02
same,MABP,"Sprague-Dawley rats [4]; 1st study, 0.3 nmol/g",126.00 ± 5.54 mmHg
same,pCO2,"Sprague-Dawley rats [4]; 1st study, 0.3 nmol/g",38.11 ± 0.81 mmHg
same,pO2,"Sprague-Dawley rats [4]; 1st study, 0.3 nmol/g",131.44 ± 9.11 mmHg
same,MABP 10 min,"Sprague-Dawley rats [4]; 1st study, 3 nmol/g",140.63 ± 7.64 mmHg
same,pCO2 10 min,"Sprague-Dawley rats [4]; 1st study, 3 nmol/g",40.25 ± 0.99 mmHg
same,pH 10 min,"Sprague-Dawley rats [4]; 1st study, 3 nmol/g",7.43 ± 0.01
same,pO2 10 min,"Sprague-Dawley rats [4]; 1st study, 3 nmol/g",136.00 ± 2.57 mmHg
same,MABP 70 min,"Sprague-Dawley rats [4]; 1st study, 3 nmol/g",102.13 ± 2.39 mmHg
same,pCO2 70 min,"Sprague-Dawley rats [4]; 1st study, 3 nmol/g",40.38 ± 0.84 mmHg
same,pH 70 min,"Sprague-Dawley rats [4]; 1st study, 3 nmol/g",7.40 ± 0.01
same,pO2 70 min,"Sprague-Dawley rats [4]; 1st study, 3 nmol/g",132.25 ± 4.65 mmHg
same,pH,"Sprague-Dawley rats [4]; 1st study, 3 nmol/g",7.44 ± 0.01
same,MABP,"Sprague-Dawley rats [4]; 1st study, 3 nmol/g",123.63 ± 6.27 mmHg
same,pCO2,"Sprague-Dawley rats [4]; 1st study, 3 nmol/g",39.75 ± 0.70 mmHg
same,pO2,"Sprague-Dawley rats [4]; 1st study, 3 nmol/g",130.63 ± 6.24 mmHg
same,MABP 10 min,"Sprague-Dawley rats [4]; 2nd study, 0.3 nmol/g",140.50 ± 4.69 mmHg
same,pCO2 10 min,"Sprague-Dawley rats [4]; 2nd study, 0.3 nmol/g",42.75 ± 0.59 mmHg
same,pH 10 min,"Sprague-Dawley rats [4]; 2nd study, 0.3 nmol/g",7.38 ± 0.01
same,pO2 10 min,"Sprague-Dawley rats [4]; 2nd study, 0.3 nmol/g",132.00 ± 4.92 mmHg
same,MABP 70 min,"Sprague-Dawley rats [4]; 2nd study, 0.3 nmol/g",129.25 ± 8.09 mmHg
same,pCO2 70 min,"Sprague-Dawley rats [4]; 2nd study, 0.3 nmol/g",41.75 ± 1.13 mmHg
same,pH 70 min,"Sprague-Dawley rats [4]; 2nd study, 0.3 nmol/g",7.41 ± 0.01
same,pO2 70 min,"Sprague-Dawley rats [4]; 2nd study, 0.3 nmol/g",121.00 ± 4.39 mmHg
same,pH,"Sprague-Dawley rats [4]; 2nd study, 0.3 nmol/g",7.38 ± 0.02
same,MABP,"Sprague-Dawley rats [4]; 2nd study, 0.3 nmol/g",119.00 ± 4.11 mmHg
same,pCO2,"Sprague-Dawley rats [4]; 2nd study, 0.3 nmol/g",39.25 ± 1.06 mmHg
same,pO2,"Sprague-Dawley rats [4]; 2nd study, 0.3 nmol/g",133.13 ± 5.15 mmHg
same,pCO2 10 min,"Sprague-Dawley rats [4]; 2nd study, 3 nmol/g",37.50 ± 0.80 mmHg
same,pH 10 min,"Sprague-Dawley rats [4]; 2nd study, 3 nmol/g",7.38 ± 0.02
same,pO2 10 min,"Sprague-Dawley rats [4]; 2nd study, 3 nmol/g",120.13 ± 6.53 mmHg
same,MABP 70 min,"Sprague-Dawley rats [4]; 2nd study, 3 nmol/g",130.25 ± 12.26 mmHg
same,pCO2 70 min,"Sprague-Dawley rats [4]; 2nd study, 3 nmol/g",40.88 ± 1.42 mmHg
same,pH 70 min,"Sprague-Dawley rats [4]; 2nd study, 3 nmol/g",7.39 ± 0.02
same,pO2 70 min,"Sprague-Dawley rats [4]; 2nd study, 3 nmol/g",124.63 ± 4.44 mmHg
same,pH,"Sprague-Dawley rats [4]; 2nd study, 3 nmol/g",7.41 ± 0.01
same,MABP,"Sprague-Dawley rats [4]; 2nd study, 3 nmol/g",124.13 ± 6.29 mmHg
same,pCO2,"Sprague-Dawley rats [4]; 2nd study, 3 nmol/g",38.63 ± 1.05 mmHg
same,pO2,"Sprague-Dawley rats [4]; 2nd study, 3 nmol/g",141.13 ± 10.44 mmHg
